Results: the supplement of paper PMC10307832

What was measured:
Test in all cases: relative viability (nuclei count vs DMSO), 5 days (fraction); higher = more cells survive
NCI-H23 = system: NCI-H23
Outline: (§1)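 Lung cancer cell lines, seeded in 1536-well plates, were treated the following day by pin tool with a single drug or with five library-drug doses (not always all listed) in √10 steps on top of a fixed anchor-drug dose. Cells were fixed and nuclei stained in one step after 5 days, and nuclei were counted. Relative viability is the nuclei count for treated wells divided by that for vehicle wells, reported as medians of duplicate plates.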

COR-L 105 = system: COR-L 105
Outline: as §1

ChaGo-K-1 = system: ChaGo-K-1
Outline: as §1

SK-MES-1 = system: SK-MES-1
Outline: as §1

EMC-BAC-2 = system: EMC-BAC-2
Outline: as §1

NCI-H441 = system: NCI-H441
Outline: as §1

SW 900 = system: SW 900
Outline: as §1

NCI-H1755 = system: NCI-H1755
Outline: as §1

LOU-NH91 = system: LOU-NH91
Outline: as §1

NCI-H1975 = system: NCI-H1975
Outline: as §1

PC-3 [JPC-3] = system: PC-3 [JPC-3]
Outline: as §1

A-427 = system: A-427
Outline: as §1

Oc1nc(-c2ccc(C(F)(F)F)cc2)nc2c1CSCC2 [XAV939] + N=C(N)NC(=N)NCCc1ccccc1 [Phenformin] (partner 250 µM)
relative viability (NCI-H23; first compound 0.8 µM): 0.613 | relative viability (NCI-H23; first compound 2.53 µM): 0.806 | relative viability (COR-L 105; first compound 0.08 µM): 0.51 | relative viability (COR-L 105; first compound 0.253 µM): 0.492 | relative viability (COR-L 105; first compound 0.8 µM): 0.434 | relative viability (COR-L 105; first compound 2.53 µM): 0.381 | relative viability (ChaGo-K-1; first compound 0.08 µM): 0.51 | relative viability (ChaGo-K-1; first compound 0.253 µM): 0.476 | relative viability (ChaGo-K-1; first compound 0.8 µM): 0.412 | relative viability (ChaGo-K-1; first compound 2.53 µM): 0.409 | relative viability (SK-MES-1; first compound 0.08 µM): 0.759 | relative viability (SK-MES-1; first compound 0.253 µM): 0.643 | relative viability (SK-MES-1; first compound 0.8 µM): 0.613 | relative viability (SK-MES-1; first compound 2.53 µM): 0.631 | relative viability (EMC-BAC-2; first compound 0.08 µM): 0.551 | relative viability (EMC-BAC-2; first compound 0.253 µM): 0.459 | relative viability (EMC-BAC-2; first compound 0.8 µM): 0.424 | relative viability (EMC-BAC-2; first compound 2.53 µM): 0.288 | relative viability (NCI-H441; first compound 0.08 µM): 0.856 | relative viability (NCI-H441; first compound 0.253 µM): 0.861 | relative viability (NCI-H441; first compound 0.8 µM): 1 | relative viability (NCI-H441; first compound 2.53 µM): 0.851 | relative viability (SW 900; first compound 0.08 µM): 0.657 | relative viability (SW 900; first compound 0.253 µM): 0.49 | relative viability (SW 900; first compound 0.8 µM): 0.537 | relative viability (SW 900; first compound 2.53 µM): 0.419 | relative viability (NCI-H1755; first compound 0.08 µM): 0.621 | relative viability (NCI-H1755; first compound 0.253 µM): 0.543 | relative viability (NCI-H1755; first compound 0.8 µM): 0.614 | relative viability (NCI-H1755; first compound 2.53 µM): 0.563 | relative viability (LOU-NH91; first compound 0.08 µM): 0.672 | relative viability (LOU-NH91; first compound 0.253 µM): 0.627 | relative viability (LOU-NH91; first compound 0.8 µM): 0.702 | relative viability (LOU-NH91; first compound 2.53 µM): 0.618 | relative viability (NCI-H1975; first compound 0.08 µM): 0.409 | relative viability (NCI-H1975; first compound 0.253 µM): 0.42 | relative viability (NCI-H1975; first compound 0.8 µM): 0.382 | relative viability (NCI-H1975; first compound 2.53 µM): 0.37 | relative viability (PC-3 [JPC-3]; first compound 0.08 µM): 0.441 | relative viability (PC-3 [JPC-3]; first compound 0.253 µM): 0.466 | relative viability (PC-3 [JPC-3]; first compound 0.8 µM): 0.474 | relative viability (PC-3 [JPC-3]; first compound 2.53 µM): 0.441 | relative viability (A-427; first compound 0.08 µM): 0.365 | relative viability (A-427; first compound 0.253 µM): 0.328 | relative viability (A-427; first compound 0.8 µM): 0.314 | relative viability (A-427; first compound 2.53 µM): 0.294
